Experimental findings from patent US9890185B2, “Urea derivatives useful as kinase inhibitors” (Respivert Limited, priority 2013, dated 2018) are described below.

pIC50: −log10 of the molar value.

The test system of assay [1] is PBMCs. In words: Cell mitosis assay in PBMCs (assay g). Type of assay: cell-based. The conditions noted are these: Homo sapiens, PBMC, test compound 5 μg/mL. As to the method: Peripheral blood mononucleocytes (PBMCs) from healthy subjects are separated from whole blood (Quintiles, London, UK) using a density gradient (Histopaque®-1077, Sigma-Aldrich, Poole, UK). The PBMCs (3 million cells per sample) are subsequently treated with 2% PHA (phytohaemagglutinin, Sigma-Aldrich, Poole, UK) for 48 hr, followed by a 20 hr exposure to varying concentrations of test compounds. At 2 hr before collection, PBMCs are treated with demecolcine (0.1 μg/mL; Invitrogen, Paisley, UK) to arrest cells in metaphase. To observe mitotic cells, PBMCs are permeabilised and fixed by adding Intraprep (50 μL; Beckman Coulter, France), and stained with anti-phospho-histone 3 (0.26 ng/L; #9701; Cell Signalling, Danvers, Mass.) and propidium iodide (1 mg/mL; Sigma-Aldrich, Poole, UK) as previously described (Muehlbauer P. A. and Schuler M. J., Mutation Research, 2003, 537:117-130). Fluorescence is observed using an ATTUNE flow cytometer (Invitrogen, Paisley, UK), gating for lymphocytes. The percentage inhibition of mitosis is calculated for each treatment relative to vehicle (0.5% DMSO) treatment.

For a further assay, the target named is c-Src (Homo sapiens (Human), UniProt P12931). In words: c-Src enzyme inhibition (FRET, Z-LYTE). The class given is biochemical. The method, boiled down: (§1)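 Fluorescence-ratio kinase assay: 2 hr compound–enzyme preincubation at RT, 1 hr reaction with ATP added as 800 μM (c-Src) or 60 μM (Syk) solution. IC50 derived from percent inhibition curves.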
Another assay deals with GSK 3α (Homo sapiens (Human), UniProt P49840). Kind of assay: GSK 3α enzyme inhibition (FRET, Z-LYTE, Method 2). Type of assay: biochemical. The conditions noted are these: read-out: IC50 Values for Enzyme Inhibition, GSK3α. The method in brief:
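Phosphorylation of a dual-labelled synthetic peptide by human GSK3α is read as a coumarin/fluorescein ratio after protease development. Compound stocks run 4 to 0.004 μg/mL, and ATP stock is 40 μM.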

The next assay addresses Syk (Homo sapiens (Human), UniProt P43405). In words: Syk enzyme inhibition (FRET, Z-LYTE). Type of assay: biochemical. The method, boiled down: as §1
Assay [2] concerns PBMCs. Kind of assay: IFN gamma release in CD3/CD28 stimulated PBMC cells (assay c). The class given is cell-based. The conditions noted are these: Homo sapiens, read-out: IC50 Values for Inhibition of Cytokine Release, PBMCs IFNγ. The procedure: (§2) PBMCs from healthy subjects are separated from whole blood using a density gradient (Lymphoprep, Axis-Shield Healthcare). Cells are added to a 96 well plate pre-coated with a mixture of CD3/CD28 monoclonal antibodies (0.3 μg/mL eBioscience and 3 μg/mL BD Pharmingen respectively). Compound at the desired concentration is then added to the wells and the plate left for 3 days under normal tissue culture conditions. Supernatants are harvested and IL-2 and IFN gamma release determined by Sandwich ELISA (Duo-set, R&D System). The IC50 is determined from the dose response curve.

Assay [3] deals with PBMCs. Kind of assay: LPS-induced IL-8 release in PBMC cells (assay b). The class given is cell-based, human. The conditions noted are these: Homo sapiens, PBMC; LPS-stimulated PBMCs; read-out: IC50 Values for Inhibition of Cytokine Release, PBMCs IL-8. The method in brief: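 Human PBMCs from healthy donors, isolated by density gradient, were pretreated with compound for 2 h and then stimulated with 1 ng/mL LPS (E. coli 0111:B4) for 24 h at 37° C, 5% CO2. Supernatant IL-8 and TNFα were measured by sandwich ELISA, and IC50 was taken from the dose-response curve.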

Assay [4] relates to PBMCs. In words: IL-2 release in CD3/CD28 stimulated PBMC cells (assay c). The conditions noted are these: Homo sapiens, read-out: IC50 Values for Inhibition of Cytokine Release, PBMCs IL-2. Type of assay: cell-based. As to the method:
as §2

The subject of a further assay is d-U937 cells. In words: Accumulation of β catenin in d-U937 cells (assay m). The conditions noted are these: percentage relative to Reference Compound at 1 μg/mL. Type of assay: cell-based, human. The method, boiled down:
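PMA-differentiated (100 ng/mL, 48–72 hr) human U937 macrophage-type cells treated with test compound or vehicle for 18 hr. β-catenin measured by in-cell ELISA (anti-β-catenin, HRP secondary, TMB, OD450–655). Signal corrected for cell number by dividing by crystal violet OD595.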

Assay [5] addresses p38 MAPKα isoform (MAPK14) (Homo sapiens (Human), UniProt Q16539). In words: p38 MAPKα enzyme inhibition (FRET, Z-LYTE, Method 2). Type of assay: biochemical. The method in brief: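 Z-LYTE FRET: p38 MAPKα (80 ng/mL for Method 1, 200 ng/mL for Method 2, pre-dilution) preincubated 2 hr RT with compound (4–0.004 μg/mL solutions), activity read via MAPKAP-K2 phosphorylation after 1 hr RT and 1 hr protease development. Coumarin/fluorescein ratio gives phosphorylation; % inhibition versus uninhibited control, IC50 from concentration-response curve.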

c-Src, sequence (P12931 whole entry, looked up): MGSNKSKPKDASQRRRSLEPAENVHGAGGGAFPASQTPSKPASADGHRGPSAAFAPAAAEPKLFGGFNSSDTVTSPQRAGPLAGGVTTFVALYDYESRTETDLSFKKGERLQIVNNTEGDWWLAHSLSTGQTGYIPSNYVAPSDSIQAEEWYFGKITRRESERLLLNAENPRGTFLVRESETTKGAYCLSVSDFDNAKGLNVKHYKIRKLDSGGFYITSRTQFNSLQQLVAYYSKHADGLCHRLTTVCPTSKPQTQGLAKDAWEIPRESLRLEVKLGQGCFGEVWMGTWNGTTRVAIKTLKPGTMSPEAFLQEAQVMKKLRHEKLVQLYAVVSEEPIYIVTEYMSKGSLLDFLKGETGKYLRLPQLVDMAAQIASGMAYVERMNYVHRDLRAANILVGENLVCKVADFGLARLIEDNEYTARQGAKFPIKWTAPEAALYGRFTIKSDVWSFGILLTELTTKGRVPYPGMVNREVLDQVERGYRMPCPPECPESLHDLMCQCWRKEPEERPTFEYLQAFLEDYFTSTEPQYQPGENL
p38 MAPKα isoform (MAPK14), sequence (Q16539 whole entry, canonical isoform): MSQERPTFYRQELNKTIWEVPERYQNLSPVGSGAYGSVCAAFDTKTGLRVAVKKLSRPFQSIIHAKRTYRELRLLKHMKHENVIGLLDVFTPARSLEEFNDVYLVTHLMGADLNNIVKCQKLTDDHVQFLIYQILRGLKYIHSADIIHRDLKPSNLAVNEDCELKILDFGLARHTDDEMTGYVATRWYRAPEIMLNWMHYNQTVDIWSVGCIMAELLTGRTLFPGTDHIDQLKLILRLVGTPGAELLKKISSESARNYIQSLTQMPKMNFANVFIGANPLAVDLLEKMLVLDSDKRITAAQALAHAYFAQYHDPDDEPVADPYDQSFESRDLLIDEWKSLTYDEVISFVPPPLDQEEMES
GSK 3α, sequence (P49840 whole entry): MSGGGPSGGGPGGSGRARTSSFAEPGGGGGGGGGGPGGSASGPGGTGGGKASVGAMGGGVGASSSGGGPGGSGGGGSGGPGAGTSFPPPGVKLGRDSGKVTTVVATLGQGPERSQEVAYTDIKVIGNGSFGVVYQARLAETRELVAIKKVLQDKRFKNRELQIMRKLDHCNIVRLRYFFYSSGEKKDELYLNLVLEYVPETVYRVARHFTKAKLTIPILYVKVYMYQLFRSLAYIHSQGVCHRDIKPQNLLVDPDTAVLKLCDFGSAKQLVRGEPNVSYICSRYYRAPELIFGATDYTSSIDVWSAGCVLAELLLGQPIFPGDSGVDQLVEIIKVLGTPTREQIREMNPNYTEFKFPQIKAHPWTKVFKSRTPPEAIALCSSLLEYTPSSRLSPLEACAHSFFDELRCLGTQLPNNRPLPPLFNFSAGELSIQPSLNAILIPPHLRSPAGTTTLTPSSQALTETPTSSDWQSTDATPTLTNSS

Regarding `COc1c(NC(=O)Nc2ccc(Oc3ccnc(Nc4cnccn4)c3)c3ccccc23)cc(C(C)(C)C)cc1P(C)(C)=O` [15(aa), 1-(5-(tert-butyl)-3-(dimethylphosphoryl)-2-methoxyphenyl)-3-(4-((2-(pyrazin-2-ylamino)pyridin-4-yl)oxy)naphthalen-1-yl)urea], at 5 µg/mL the inhibition in the assay on PBMCs [1] was 98.1%. For the same molecule, the pIC50 against c-Src was 7.34; on GSK 3α, 6.72; at Syk, 6.94; in the assay with PBMCs [2], 7.83; in the assay on PBMCs [3], 9.10; with PBMCs [4], 7.23. The “% β-catenin induction” value turned out to be 50.5% in the assay with d-U937 cells (test compound 1 μg/mL), 58.5% with d-U937 cells (test compound 5 μg/mL) and 49.5% with d-U937 cells (test compound 10 μg/mL).
With `COc1c(NC(=O)Nc2ccc(Oc3ccnc(Nc4ccccc4)c3)c3ccccc23)cc(C(C)(C)C)cc1OCP(C)(C)=O` [15(e), 1-(5-(tert-butyl)-3-((dimethylphosphoryl)methoxy)-2-methoxyphenyl)-3-(4-((2-(phenylamino)pyridin-4-yl)oxy)naphthalen-1-yl)urea], the pIC50 against c-Src is 6.92; at GSK 3α, 5.54; against Syk, 6.26; in the assay on PBMCs [2], 7.22; in the assay with PBMCs [3] it was 8.33; in the assay with PBMCs [4], 7.59. This molecule also had a pIC50 in [5] of 6.44. In addition, the “% β-catenin induction” value with d-U937 cells (test compound 1 μg/mL) was 2.0%; in the assay on d-U937 cells (test compound 5 μg/mL), 20.5%; with d-U937 cells (test compound 10 μg/mL), 32.5%.
The molecule `COc1cccc(Nc2cc(Oc3ccc(NC(=O)Nc4cc(C(C)(C)C)cc(CC(N)=O)c4OC)c(Cl)c3Cl)ccn2)c1` [38(af), 2-(5-(tert-Butyl)-3-(3-(2,3-dichloro-4-((2-((3-methoxyphenyl)amino)pyridin-4-yl)oxy)phenyl)ureido)-2-methoxyphenyl)acetamide] yielded an inhibition at 5 µg/mL in the assay on PBMCs [1] of 89.3%. Further, the pIC50 was 7.36 on c-Src; 6.00 at GSK 3α; 6.60 against Syk; 8.35 in the assay with PBMCs [2]; 8.59 with PBMCs [3]; 7.20 in the assay with PBMCs [4].
`COc1cc(Nc2cc(Oc3ccc(NC(=O)Nc4cc(C(C)(C)C)cc(CC(N)=O)c4OC)c4ccccc34)ccn2)cc(S(N)(=O)=O)c1` [38(ai), 2-(5-(tert-Butyl)-2-methoxy-3-(3-(4-((2-((3-methoxy-5-sulfamoylphenyl)amino)pyridin-4-yl)oxy)naphthalen-1-yl)ureido)phenyl)acetamide]: at 5 µg/mL the inhibition with PBMCs [1] was 67.6%. The pIC50 on GSK 3α is 6.05; in the assay with PBMCs [2], 7.95; with PBMCs [3], 8.80; in the assay on PBMCs [4] it was 7.04.
As for `COc1cc(Nc2cc(Oc3ccc(NC(=O)Nc4cc(C(C)(C)C)cc(P(C)(C)=O)c4OC)c4ccccc34)ccn2)ccc1C(=O)NCCN1CCOCC1` [38(ao), 4-((4-((4-(3-(5-(tert-Butyl)-3-(dimethylphosphoryl)-2-methoxyphenyl)ureido)naphthalen-1-yl)oxy)pyridin-2-yl)amino)-2-methoxy-N-(2-morpholinoethyl)benzamide], 5 µg/mL produced 78% inhibition in the assay with PBMCs [1]. Further, the pIC50 on GSK 3α was 5.49; in the assay on PBMCs [2], 7.80; in the assay on PBMCs [3], 8.57; in the assay on PBMCs [4] it was 6.66.
In the case of `COc1c(CC(N)=O)cc(C(C)(C)C)cc1NC(=O)Nc1ccc(Oc2ccnc(Nc3cccc(OC(F)F)c3)c2)c2ccccc12` [38(s), 2-(5-(tert-Butyl)-3-(3-(4-((2-((3-(difluoromethoxy)phenyl)amino)pyridin-4-yl)oxy)naphthalen-1-yl)ureido)-2-methoxyphenyl)acetamide], the pIC50 was 6.44 against c-Src; less than 4.82 at GSK 3α; less than 5.82 at Syk; 7.57 in the assay on PBMCs [2]; 8.28 with PBMCs [3]; 6.72 in the assay on PBMCs [4].
In the assay on PBMCs [1], `COc1cc(Nc2cc(Oc3ccc(NC(=O)Nc4cc(C(C)(C)C)cc(CNC(C)=O)c4OC)c4ccccc34)ccn2)cc(C(=O)NCCN2CCOCC2)c1` [38(t), 3-((4-((4-(3-(3-(Acetamidomethyl)-5-(tert-butyl)-2-methoxyphenyl)ureido)naphthalen-1-yl)oxy)pyridin-2-yl)amino)-5-methoxy-N-(2-morpholinoethyl)benzamide] came in with an inhibition at 5 µg/mL of 77.3%. Also, the pIC50 was 6.08 on GSK 3α, 8.13 with PBMCs [2], 9.15 in the assay on PBMCs [3] and 6.54 in the assay with PBMCs [4].
In the case of `COCCOCCOCCOc1cc(Nc2nccc(Oc3ccc(NC(=O)Nc4cc(C(C)(C)C)cc(P(C)(C)=O)c4OC)c4ccccc34)n2)cc(OC)c1` [Example 1, 1-(5-(tert-Butyl)-3-(dimethylphosphoryl)-2-methoxyphenyl)-3-(4-((2-((3-methoxy-5-(2-(2-(2-methoxyethoxy)ethoxy)ethoxy)phenyl)amino)pyrimidin-4-yl)oxy)naphthalen-1-yl)urea], the pIC50 was 8.05 against c-Src; 6.48 at GSK 3α; 7.52 on Syk; 8.42 in the assay on PBMCs [2]; 8.96 in the assay with PBMCs [3]; 7.21 in the assay with PBMCs [4]. In assay [5], the pIC50 was 7.47.
On to `COc1cc(Nc2nccc(Oc3ccc(NC(=O)Nc4cc(C(C)(C)C)cc(P(C)(C)=O)c4OC)c4ccccc34)n2)cc(OC)c1` [Example 18, 1-(5-(tert-Butyl)-3-(dimethylphosphoryl)-2-methoxyphenyl)-3-(4-((2-((3,5-dimethoxyphenyl)-amino)pyrimidin-4-yl)oxy)naphthalen-1-yl)urea], for which the pIC50 against c-Src is 7.82; on GSK 3α, 5.88; on Syk, 7.16; in the assay with PBMCs [2], 8.09; with PBMCs [3] it was 8.68; with PBMCs [4], 7.71. In assay [5], this molecule gave a pIC50 of 6.66. Besides, the “% β-catenin induction” value with d-U937 cells (test compound 1 μg/mL) is listed as 6.5%; with d-U937 cells (test compound 5 μg/mL) it was 35.5%; in the assay with d-U937 cells (test compound 10 μg/mL), 39.0%.
Molecule `COc1c(CNC(C)=O)cc(C(C)(C)C)cc1NC(=O)Nc1ccc(Oc2ccnc(Nc3cc(C#N)cc(OCCN4CCOCC4)c3)c2)c2ccccc12` [Example 50, N-(5-(tert-Butyl)-3-(3-(4-((2-((3-cyano-5-(2-morpholinoethoxy)phenyl)amino)pyridin-4-yl)oxy)naphthalen-1-yl)ureido)-2-methoxybenzyl)acetamide] had an inhibition at 5 µg/mL with PBMCs [1] of 57.7%. In addition, the pIC50 is 7.40 against c-Src; 5.49 at GSK 3α; 6.10 against Syk; 9.05 in the assay with PBMCs [2]; 8.92 in the assay with PBMCs [3]; 7.52 in the assay on PBMCs [4].

A word on the inhibition: it is the drop in the measured response relative to a control, in per cent. The term pIC50 denotes the IC50 on a negative log10 scale, so that one unit is a factor of ten.
